Where two headings read alike, the source gives them in different places.
Key:
Assay type in all cases: biochemical
IAPP fibrils [1] = target: T1, IAPP fibrils (Homo sapiens, UniProt P10997); experiment: Thioflavin T fluorometry - disruption of type 2 diabetes IAPP fibrils; details: 25 μM pre-fibrillized IAPP, 37° C., 3 days; for inhibition: read-out: % Inhibition IAPP (result ± S.D.)
T1 construct: purchased Bachem Inc
T1 sequence (P10997 34-70 limits assumed): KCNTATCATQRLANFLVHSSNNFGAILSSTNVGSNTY
Method in brief: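 Pre-fibrillized human IAPP (25 μM) incubated 3 days at 37 °C alone or with compound at IAPP:compound weight ratios of 1:1 to 1:0.001. Mixtures then mixed with Thioflavin T in phosphate buffer pH 6.8; fluorescence read at 485 nm (ex 444 nm) after blank subtraction.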

IAPP fibrils [2] = target: T1, IAPP fibrils; experiment: Congo red binding assay with IAPP fibrils; details: 3-day incubation
Method in brief: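 Congo red staining of washed 0.2 μm filters measured the aggregated IAPP retained after a 3-day co-incubation with compound or EDTA. Weight ratios IAPP:compound were 1:1, 1:0.1, 1:0.01 or 1:0.001; loss of color relative to compound-free IAPP was scored.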

Aβ 1-42 fibrils = target: T2, Aβ 1-42 fibrils (Homo sapiens, UniProt P05067); experiment: Thioflavin T fluorometry - disruption of pre-formed Aβ 1-42 Alzheimer's fibrils; details: 25 μM pre-fibrillized Aβ 1-42, 37° C., 3 days; for inhibition: read-out: % Inhibition Aβ (result ± S.D.)
T2 construct: purchased Bachem Inc
Method in brief: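 Pre-fibrillized Aβ1-42 (25 µM) incubated 3 days at 37 °C alone or with compound at Aβ:compound weight ratios 1:1 to 1:0.001. Remaining fibrils quantified by Thioflavin T fluorescence (ex 444/em 485 nm) in phosphate buffer pH 6.8, blank-subtracted for buffer or compound alone.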

NAC fibrils = target: T3, NAC fibrils (Homo sapiens, UniProt P37840); experiment: Thioflavin T fluorometry - disruption of Parkinson's disease NAC fibrils; details: 3 days; for % Inhibition NAC (result ± S.D.) / inhibition: 25 μM pre-fibrillized NAC, 37° C.; for disruption/disassembly of pre-formed NAC fibrils (in words): all concentrations tested (ratios 1:1 to 1:0.001); for inhibition: read-out: % Inhibition NAC (result ± S.D.)
T3 construct: NAC is a 35-amino acid fragment of α-synuclein; purchased Bachem Inc
Method: In this assay, Thioflavin T binds specifically to NAC fibrils, and this binding produces a fluorescence enhancement at 485 nm that is directly proportional to the amount of NAC fibrils present. The higher the fluorescence, the greater the amount of NAC fibrils present (Naki et al, Lab. Invest. 65:104-110, 1991; Levine III, Protein Sci. 2:404-410, 1993; Amyloid: Int. J. Exp. Clin. Invest. 2:1-6, 1995).
In this study, 25 μM of pre-fibrillized NAC (Bachem Inc) was incubated at 37° C. for 3 days either alone or in the presence of dihydroxy synthetic analog compounds #1, 3, 23, 26, 52, 63, 66, 67, or EDTA (at NAC:test compound weight ratios of 1:1, 1:0.1, 1:0.01 or 1:0.001). Following 3-days of co-incubation, 50 βl of each incubation mixture was transferred into a 96-well microtiter plate containing 150 μl of distilled water and 50 μl of a Thioflavin T solution (i.e. 500 mM Thioflavin T in 250 mM phosphate buffer, pH 6.8). The fluorescence was read at 485 nm (444 nm excitation wavelength) using an ELISA plate fluorometer after subtraction with buffer alone or compound alone, as blank.

[3] = IAPP:test compound wt/wt ratio 1:0.001
[4] = IAPP:test compound wt/wt ratio 1:0.01
[5] = IAPP:test compound wt/wt ratio 1:0.1
[6] = IAPP:test compound wt/wt ratio 1:1
[7] = Aβ:test compound wt/wt ratio 1:0.001
[8] = Aβ:test compound wt/wt ratio 1:0.01
[9] = Aβ:test compound wt/wt ratio 1:0.1
[10] = Aβ:test compound wt/wt ratio 1:1
[11] = NAC:test compound wt/wt ratio 1:0.001
[12] = NAC:test compound wt/wt ratio 1:0.01
[13] = NAC:test compound wt/wt ratio 1:0.1
[14] = NAC:test compound wt/wt ratio 1:1

T2 sequence (P05067 672-713): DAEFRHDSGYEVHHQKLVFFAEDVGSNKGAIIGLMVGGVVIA

Row | inhibition (NAC fibrils; [11]) | inhibition (NAC fibrils; [12]) | inhibition (NAC fibrils; [14]) | SMILES | inhibition (IAPP fibrils [1]; [3]) | inhibition (IAPP fibrils [1]; [4]) | inhibition (IAPP fibrils [1]; [5]) | inhibition (IAPP fibrils [1]; [6]) | % Inhibition IAPP (result ± S.D.), Congo red binding (IAPP fibrils [2]; [3]) | % Inhibition IAPP (result ± S.D.), Congo red binding (IAPP fibrils [2]; [4]) | % Inhibition IAPP (result ± S.D.), Congo red binding (IAPP fibrils [2]; [5]) | % Inhibition IAPP (result ± S.D.), Congo red binding (IAPP fibrils [2]; [6]) | inhibition (Aβ 1-42 fibrils; [7]) | inhibition (Aβ 1-42 fibrils; [8]) | inhibition (Aβ 1-42 fibrils; [9]) | inhibition (Aβ 1-42 fibrils; [10]) | disruption/disassembly of pre-formed NAC fibrils (in words) (NAC fibrils) | other results
1 |  |  |  | O=C(NCc1ccc(O)c(O)c1)C(=Cc1ccc(O)c(O)c1)NC(=O)c1ccc(O)c(O)c1 [Compound 21, α-(3,4-dihydroxybenzamido)-3,4-dihydroxycinnamic acid 3,4-dihydroxybenzyl amide] | 5.4 ± 15.4% | 25.8 ± 3.61% | 85.4 ± 0.86% | 98.5 ± 0.06% | 0.0 ± 2.10% | 5.1 ± 4.53% | 10.4 ± 3.53% | 35.9 ± 0.21% | 8.9 ± 2.13% | 48.2 ± 8.29% | 81 ± 1.31% | 98.6 ± 0.54% |  | 
2 |  |  |  | Oc1ccc(Cc2ccc(O)c(O)c2)cc1O [Compound 3, 3,4,3′,4′-tetrahydroxydiphenylmethane] |  |  |  |  | 11.1 ± 5.26% | 16.3 ± 1.13% | 37.9±3.10% | 55.5±2.68% |  |  |  |  | dose-dependent disruption/disassembly | % Inhibition IAPP (result ± S.D.) (IAPP fibrils [1]; [3]): 30.7 ± 6.71%; % Inhibition IAPP (result ± S.D.) (IAPP fibrils [1]; [4]): 79.9±1.47%; % Inhibition IAPP (result ± S.D.) (IAPP fibrils [1]; [5]): 97.7±0.19%; % Inhibition IAPP (result ± S.D.) (IAPP fibrils [1]; [6]): 100 ± 0.20%; % Inhibition NAC (result ± S.D.) (NAC fibrils; [11]): 67.3 ± 6.37%; % Inhibition NAC (result ± S.D.) (NAC fibrils; [12]): 93.9±0.77%; % Inhibition NAC (result ± S.D.) (NAC fibrils; [13]): 91.0±1.99%; % Inhibition NAC (result ± S.D.) (NAC fibrils; [14]): 98.0 ± 1.78%; % Inhibition Aβ (result ± S.D.) (Aβ 1-42 fibrils; [7]): 5.5 ± 1.99%; % Inhibition Aβ (result ± S.D.) (Aβ 1-42 fibrils; [8]): 53.1 ± 1.67%; % Inhibition Aβ (result ± S.D.) (Aβ 1-42 fibrils; [9]): 57.8±6.36%; % Inhibition Aβ (result ± S.D.) (Aβ 1-42 fibrils; [10]): 99.5 ± 0.10%
3 |  |  |  | O=C(Nc1ccc(O)c(O)c1)Nc1ccc(O)c(O)c1 [Compound 76, 1,3-bis(3,4-dihydroxyphenyl)urea] | 9 ± 0.32% | 41.5 ± 6.67% | 87.5 ± 1.89% | 99.6 ± 1.01% | 3.4 ± 1.07% | 14.2 ± 2.25% | 16.5 ± 2.60% | 53.9 ± 5.44% | 12.2 ± 5.98% | 40.9 ± 3.76% | 86.5 ± 1.18% | 99.3 ± 1.35% |  | 
4 | 0% | 68.2 ± 2.55% | 100 ± 1% | O=C(c1ccc(O)c(O)c1)C(O)c1ccc(O)c(O)c1 (centres unmarked) [Compound 1, 3,4,3′,4′-tetrahydroxybenzoin] | 6.4 ± 4.4% | 57.3 ± 0.16% | 93 ± 1.27% | 99 ± 0.11% |  | 18.6 ± 4.05% | 10.6 ± 3.40% | 40.7 ± 2.49% | 0% | 19.2 ± 4.31% | 64.8 ± 1.98% | 97.3 ± 0.23% | dose-dependent disruption/disassembly | inhibition (NAC fibrils; [13]): 99.5 ± 0.53%
5 | 0% | 56.8 ± 4.6% | 70.4 ± 3.22% | O=C(N[C@@H]1CCCC[C@H]1NC(=O)c1ccc(O)c(O)c1)c1ccc(O)c(O)c1 (relative stereo) [Compound 26, N,N′-bis(3,4-dihydroxybenzoyl)-trans-1,2-diaminocyclohexane] | 3.7 ± 4.67% | 24.6 ± 6.77% | 45.9 ± 17.7% | 52.5 ± 2.44% | 10.8 ± 2.63% | 5.3 ± 6.14% | 7.5 ± 2.83% | 0.0 ± 1.21% | 0% | 0% | 11.7 ± 3.67% | 37.8 ± 5.5% |  | inhibition (NAC fibrils; [13]): 61.3 ± 6.52%
6 | 0% | 35.6 ± 9.73% | 58 ± 8.43% | O=C(c1ccc(O)c(O)c1)N1CCN(C(=O)c2ccc(O)c(O)c2)CC1 [Compound 23, 1,4-bis(3,4-dihydroxybenzoyl)piperazine] | 27.3 ± 45.4% | 44.3 ± 32.5% | 67.2 ± 18.4% | 85.2 ± 0.55% | 5.1 ± 2.45% | 9.3 ± 1.40% | 4.5 ± 4.12% | 5.5 ± 2.33% | 0% | 16.5 ± 4.02% | 26.2 ± 4.37% | 46.7 ± 4.62% |  | 
7 |  |  |  | O=C(Nc1ccc(O)c(O)c1)c1ccc(O)c(O)c1 [Compound 51, 3,4-dihydroxybenzoic acid 3,4-dihydroxyanilide] | 11.8 ± 6.45% | 56.6 ± 1.69% | 96.6 ± 1% | 99.9 ± 0.11% | 1.6 ± 1.01% | 3.6 ± 2.59% | 27.5 ± 3.49% | 55.6 ± 1.48% | 29 ± 25.2% | 55.3 ± 5.23% | 94.9 ± 0.24% | 99.4 ± 0.05% |  | 

Row | SMILES | inhibition (NAC fibrils; [11]) | inhibition (NAC fibrils; [12]) | inhibition (NAC fibrils; [14]) | inhibition (IAPP fibrils [1]; [3]) | inhibition (IAPP fibrils [1]; [4]) | inhibition (IAPP fibrils [1]; [5]) | inhibition (IAPP fibrils [1]; [6]) | % Inhibition IAPP (result ± S.D.), Congo red binding (IAPP fibrils [2]; [3]) | % Inhibition IAPP (result ± S.D.), Congo red binding (IAPP fibrils [2]; [4]) | % Inhibition IAPP (result ± S.D.), Congo red binding (IAPP fibrils [2]; [5]) | % Inhibition IAPP (result ± S.D.), Congo red binding (IAPP fibrils [2]; [6]) | inhibition (Aβ 1-42 fibrils; [7]) | inhibition (Aβ 1-42 fibrils; [8]) | inhibition (Aβ 1-42 fibrils; [9]) | inhibition (Aβ 1-42 fibrils; [10]) | disruption/disassembly of pre-formed NAC fibrils (in words) (NAC fibrils) | other results
8 | O=C(Nc1ccc(O)c(O)c1)C(=O)Nc1ccc(O)c(O)c1 [Compound 63, oxalic acid bis(3,4-dihydroxyanilide)] | 17.3 ± 12.6% | 33 ± 1.69% | 45.6 ± 31% | 19 ± 0.3% | 56.2 ± 8.77% | 84.2 ± 1.16% | 94.9 ± 0.65% | 0.0 ± 2.25% | 11.7 ± 2.26% | 4.5 ± 1.62% | 15.4 ± 1.34% | 1.6 ± 9.47% | 57.5 ± 10.6% | 23.6 ± 25.8% | 85.3 ± 0.91% | dose-dependent disruption/disassembly | 

Reference: US20070276034A1, “Compounds, compositions and methods for the treatment of synucleinopathies” (priority 2002, published 2007)
